Consider one compound from patent US20070027143A1, “Novel substituted 2,3-benzodiazepine derivatives” (priority 2003, published 2007).

Structures are written as SMILES. Where two headings read alike, the source gives them in different places.

Experiment [1] deals with CD1 mice. Briefly: Anticonvulsant activity, pentetrazole induced seizures. The experiment is classed as in vivo. Particulars: Mus musculus, po, read-out: Pentetrazol ED50. The procedure, abridged: (§1)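 Compounds were given by mouth in three doses to groups of ten male CD1 mice. Seizures were then provoked chemically, usually 60 min later. Clonic-tonic seizures and lethality were recorded.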

Another experiment relates to AMPA/kainate receptors. Briefly: Inhibition of AMPA induced whole-cell current in acutely isolated cerebellar Purkinje cells (patch clamp). The experiment is classed as cell-based. Particulars: 5 μM AMPA, read-out: Inhibition of the ion-currents caused by 5 μM AMPA, IC50. As for the experimental part:
(§2) In the first model the spreading depression caused by glutamate agonists (i.e., AMPA or kainate) was studied, while in the second one the transmembrane ion-current induced by the activation of the AMPA/kainate receptors was measured directly.
The activity of the compounds of the present invention was studied on acutely isolated cerebellar Purkinje cells by measuring the whole-cell current induced by 5 μM AMPA according for example to the method described by Bleakman et al (Neuropharmacology 12:1689 (1996)).

In experiment [2] the test system is CD1 mice. Briefly: Anticonvulsant activity, strychnine induced seizures. Particulars: Mus musculus, po, read-out: Strychnine ED50. Type of experiment: in vivo. The procedure, abridged:
as §1

The subject of experiment [3] is CD1 mice. Briefly: Anticonvulsant activity, 4-aminopyridine induced seizures. Particulars: Mus musculus, po, read-out: 4-AP ED50. Type of experiment: in vivo. The method in brief: as §1
Experiment [4] deals with CD1 mice. Briefly: Anticonvulsant activity, nicotine induced seizures. Particulars: Mus musculus; po. The experiment is classed as in vivo. The method in brief: as §1
The subject of the next experiment is AMPA receptors. Nature of the experiment: Inhibition of AMPA induced spreading depression in isolated chicken retina. The experiment is classed as cell-based. Particulars: AMPA (5 μM). The method, then: as §2
Inhibition of AMPA Induced “Spreading Depression” in Isolated Chicken Retina—
The AMPA antagonistic effect of the compounds of formula (I) or (II) was studied in the in vitro “spreading depression” model (Sheardown Brain Res. 607:189 (1993)). The AMPA antagonists prolong the latency of the development of the “spreading depression” caused by AMPA (5 μM).

Experiment [5] relates to tumor cell types (colon adenocarcinoma, astrocytoma, breast carcinoma, lung carcinoma and neuroblastoma). Particulars: Rzeski et al.; cited from earlier work.
Experiment [6] relates to BN rats. Briefly: Bronchial hyperresponsiveness of ovalbumin sensitized, antigen challenged BN rats (tracheal rings, acetylcholine). The experiment is classed as in vivo. Particulars: 3.0 mg/kg po, 2 hours pre-challenge, mean ± SE. An excerpt: (§3) Bronchial hyperresponsiveness (BHR) and airway eosinophilia (AEP) are characteristic features of bronchial asthma. BHR is typified by an exaggerated response to a wide variety of stimuli that can induce an increased resistance to airflow in the airways. AEP is a result of prolonged eosinophil infiltration, mast cell, and T cell activation in the airways. In actively (e.g., ovalbumin) immunized rats (e.g., Brown Norway [BN] strain), repeated sensitization followed by antigenic challenge results in lung eosinophilia and bronchial hyperresponsiveness to different spasmogens (e.g., acetylcholine). This is the most frequently employed model for studying potential anti-asthmatic effects of new chemical entities.
(§4) BN rats were actively immunized with allergen (ovalbumin). On day one, rats were sensitized with the subcutaneous administration of ovalbumin suspended in Al(OH)3 (2.5 μg ovalbumin +20 mg Al(OH)3 in 0.5 ml saline). Booster injections (same dose and same route) were given at day 14 and 21. Simultaneously at each occasion 0.25 ml of Bordatella pentussis vaccine was injected intraperitoneally. On day 28, animals were challenged by inhalation of the antigen (vaporized 1% OVA solution for 1 hour). Test compounds were administered orally 2 hours pre-challenge.
(§5) 48 hours following challenge, they were sacrificed by an overdose of urethane (4-5 ml of 15% urethane given i.p.), bronchoalveolar lavage fluid (BALF) was obtained, and tracheae dissected from the animals. Eosinophil cell count (cells/ml BALF) was determined manually using a selective stain for eosinophils and counting the cells in a Buerker chamber. BHR was determined using tracheal rings suspended in an organ bath. After an equilibration period of 30 minutes, cumulative concentration response curves to acetylcholine were determined. Maximal response of control (unchallenged, non-treated) tracheal rings is obtained at 10^−3 M acetylcholine. The height of this response is defined as 100%. All other contractions are expressed as a percentage and related to the control response.

Another experiment deals with Lewis rats. Nature of the experiment: Autoimmune encephalomyelitis model, neurological (clinical) symptoms. Type of experiment: in vivo. Particulars: Rattus norvegicus, ip, 30 mg/kg ip., read-out: Neurological symptoms (change compared to controls, %). The method, then:
The compounds were administered intraperitoneally twice a day for 8 days, starting on day 10 after immunization and with an observation period until symptoms were present. 5-15 animals were used in each group. Their weights were 160-180 g (Lewis rats, female) and 180-220 g (Lewis rats, male). The activity of the compounds was determined according to the symptom score values, and compared to those of the control group (see Table 6). Histopathological investigations were carried out on the brain stem, the spinal cord, and the sciatic nerve (Gijbels et al., J. Clin. Invest. 94:2177 (1994)) using 5-10 animal/group.
Compounds of the invention were further investigated in the autoimmune encephalomyelitis model in rats as outlined in this description before, with the variance that 10 animals were used in each group, of weights 140-160 g (Lewis rats, female).

Experiment [7] relates to CD1 mice. Briefly: Anticonvulsant activity, 3-mercapto-propionic acid induced seizures. Type of experiment: in vivo. Particulars: Mus musculus, po, read-out: 3-MPA ED50. The method in brief:
as §1

Experiment [8] concerns CD1 mice. Briefly: Anti-tremor effect, GYKI 20039 induced tremor. Particulars: Mus musculus; po., Litchfield-Wilcoxon, limits in brackets; read-out: ED50, tremor induced by GYKI 20039 10 mg/kg ip. Type of experiment: in vivo.
Experiment [9] deals with CD1 mice. Nature of the experiment: Muscle relaxant activity, rotarod test. The experiment is classed as in vivo. Particulars: Mus musculus, ip. For orientation: The rotarod test checks motor coordination on a turning rod.
In experiment [10] the test system is CD1 mice. Nature of the experiment: Anticonvulsant activity, bemegride induced seizures. Type of experiment: in vivo. Particulars: Mus musculus, po, read-out: Bemegride ED50. The procedure, abridged: as §1
The test system of experiment [11] is CD1 mice. Nature of the experiment: Anti-tremor effect, oxotremorine induced tremor. The experiment is classed as in vivo. Particulars: Mus musculus; po., Litchfield-Wilcoxon, limits in brackets; read-out: ED50, tremor induced by Oxotremorin 1 mg/kg ip.
Experiment [12] deals with CD1 mice. Briefly: Anti-tremor effect, harmaline induced tremor. Particulars: po., Litchfield-Wilcoxon, limits in brackets. The experiment is classed as in vivo.
Experiment [13] concerns CD1 mice. Nature of the experiment: Muscle relaxant activity, inclined screen test. Particulars: Mus musculus, ip. The experiment is classed as in vivo.
Experiment [14] relates to CD1 mice. Briefly: Anticonvulsant activity, bicuculline induced seizures. The experiment is classed as in vivo. Particulars: Mus musculus, po, read-out: Bicuculline ED50. The procedure, abridged:
as §1

In experiment [15] the test system is BN rats. Nature of the experiment: Airway eosinophilia of ovalbumin sensitized, antigen challenged BN rats (BALF eosinophil count). Particulars: 3.0 mg/kg po, 2 hours pre-challenge, mean ± SE. Type of experiment: in vivo.
From the text: as §3, §4, §5

The subject of experiment [16] is CD1 mice. Nature of the experiment: Anticonvulsant activity, maximal electroshock seizure (MES) test. Type of experiment: in vivo. Particulars: Mus musculus, po. For orientation: In the maximal electroshock model the usual endpoint is tonic extension of the hind limbs.

As usually defined, the IC50 is the point on the concentration scale where inhibition reaches its midpoint. `CC1=NN=C(c2ccc(N)cc2)c2cc3c(cc2C1)OCO3` [GYKI 52466, 5-(4-aminophenyl)-8-methyl-9H-1,3-dioxolo[4,5-h][2,3]benzodiazepine, reference compound]: the ED50 is 120 mg/kg with CD1 mice [1]; 86.7 mg/kg with CD1 mice [2]; 43 mg/kg with CD1 mice [3]; 71.8 mg/kg in the experiment on CD1 mice [4]; 47 mg/kg in the experiment on CD1 mice [7]; 37.1 mg/kg in the experiment on CD1 mice [8]. In addition, the ED50 with CD1 mice [9] came out at 25.1 mg/kg; in the experiment with CD1 mice [10] it was 71.9 mg/kg; in the experiment on CD1 mice [11] it was 20.5 mg/kg; in the experiment with CD1 mice [13] it was 47.1 mg/kg; in the experiment with CD1 mice [14], 35 mg/kg; with CD1 mice [16] (0.5 h, read-out: MES 30′ ED50), 21.9 mg/kg. For the same compound, the ED50 in the experiment on CD1 mice [16] (1 h, read-out: MES (MES 60′) ED50) was found to be 37.4 mg/kg. In addition, the IC50 came out at 8.8 µM with AMPA/kainate receptors and 9.5 µM in the experiment with AMPA receptors. Moreover, the “Growth of selected tumor cell types” value in experiment [5] is “inhibit growth”. The “MAX: relative contraction compared to the control at a maximal Ach concentration” value in the experiment on BN rats [6] is given as 135 ± 105%. The change in vivo at 30 mg/kg was -45% in the experiment on Lewis rats (female rats, 0-8 day); -4% in the experiment with Lewis rats (female rats, 0-14 day); -1% in the experiment on Lewis rats (male rats, 0-8 day); -1% with Lewis rats (male rats, 0-14 day). For the same compound, the “ED50, tremor induced by Harmaline 40 mg/kg ip.” value in the experiment with CD1 mice [12] is 38.5(25.7-57.9) mg/kg po. Moreover, the BALF eosinophil number in the experiment on BN rats [15] is reported as 0.91 ± 0.13 ×10^6/ml.
